According to patent publication US20200078468A1, “NEUROTENSIN RECEPTOR BINDING CONJUGATES AND FORMULATIONS THEREOF” (priority 2016, published 2020):
Where two headings read alike, the source gives them in different places. Numbered stars: 1 amine (or outer) side, 2 acyl side, 3 side chain; on linkers, the order of the positions; unused ones are H or OH. Bridge positions count the residues as written; N and C are the ends. Square brackets hold non-standard residues; d marks the D form. Peptide text beside a SMILES is read from it. I, II: the chains in the order shown. * marks the point of attachment. SN38(20-O) = CCc1c2c(nc3ccc(O)cc13)-c1cc3c(c(=O)n1C2)COC(=O)[C@@]3(CC)O*; Hexanoyl(6-succinimido-3yl) = O=C1CC([*:1])C(=O)N1CCCCCC(=O)[*:2]; NMeR = CN[C@@H](CCCNC(=N)N)C(=O)O; Pen = CC(C)(S)[C@H](N)C(=O)O; Tle = CC(C)(C)[C@H](N)C(=O)O

Test system: SW48 (human colon cancer cells)
Assay: inhibition of SW48 cell proliferation (CellTiter Glo)
Assay type: cell-based
Conditions: 72 hrs, read-out: SW-48 proliferation IC50
Method: Conjugates were assessed in an in vitro assay evaluating inhibition of cell proliferation. SW48 (human colon cancer cells, ATCC®), cells were plated in 96 well, flat-bottomed plates (Costar) at a concentration of 5,000 cells/well. Cells were then incubated at 37° C. with 5% CO2 for 24 hrs. After 24 hrs, cells were treated with 0.01% DMSO or compound. Compounds were added at a starting dose of 10 μM and three fold serial dilutions were done for a total often points. Following compound addition, cells were incubated at 37° C. with 5% CO2 for 72 hrs. Proliferation was measured by CellTiter Glo reagent using the standard protocol (Promega) and a Glomax multi+detection system (Promega). Percent proliferation inhibition was calculated using the following formula: % inhibition=(control−treatment)/control*100. Control is defined as vehicle alone. IC50 curves were generated using the nonlinear regression analysis (four parameter) with GraphPad Prism 6.
Conjugates are assessed for receptor-dependent cytotoxicity by the difference between an NTSR1-targeting conjugate, and the corresponding conjugate with the same linker moiety and active agent where the NTSR1-targeting domain has been scrambled.

Compound	IC50 (NTSR1 targeted compound)	IC50 (NTSR1 scrambled compound)
CCc1c2c(nc3ccc(O)cc13)-c1cc3c(c(=O)n1C2)COC(=O)[C@@]3(CC)OC(=O)CNC(=O)CNC(=O)[C@H](CC(C)C)NC(=O)[C@H](Cc1ccccc1)NC(=O)CNC(=O)CCCCCN1C(=O)CC(SC(C)(C)[C@H](NC(C)=O)C(=O)N2CCC[C@H]2C(=O)N[C@@H](CCCNC(=N)N)C(=O)N(C)[C@@H](CCCNC(=N)N)C(=O)N2CCC[C@H]2C(=O)N[C@@H](Cc2ccc(O)cc2)C(=O)N[C@H](C(=O)N[C@@H](CC(C)C)C(=O)O)C(C)(C)C)C1=O (stereo partly drawn) [Compound 66] (I: Ac-[Pen]PR[NMeR]PY[Tle]L-OH / II: GFLGG-{SN38(20-O)}; linker I:1-II:N via Hexanoyl(6-succinimido-3yl))	694 nM	
CCc1c2c(nc3ccc(O)cc13)-c1cc3c(c(=O)n1C2)COC(=O)[C@@]3(CC)OC(=O)CNC(=O)CNC(=O)[C@H](CC(C)C)NC(=O)[C@H](Cc1ccccc1)NC(=O)CNC(=O)CCCCCN1C(=O)CC(SC(C)(C)[C@H](NC(C)=O)C(=O)N2CCC[C@H]2C(=O)N(C)[C@@H](CCCNC(=N)N)C(=O)N[C@@H](CCCNC(=N)N)C(=O)N2CCC[C@H]2C(=O)N[C@@H](Cc2ccc(O)cc2)C(=O)N[C@H](C(=O)N[C@@H](CC(C)C)C(=O)O)C(C)(C)C)C1=O (stereo partly drawn) [Compound 67] (I: Ac-[Pen]P[NMeR]RPY[Tle]L-OH / II: GFLGG-{SN38(20-O)}; linker I:1-II:N via Hexanoyl(6-succinimido-3yl))	816 nM	
CCc1c2c(nc3ccc(O)cc13)-c1cc3c(c(=O)n1C2)COC(=O)[C@@]3(CC)OC(=O)CNC(=O)CNC(=O)[C@H](CC(C)C)NC(=O)[C@H](Cc1ccccc1)NC(=O)CNC(=O)CCCCCN1C(=O)CC(SC(C)(C)[C@H](NC(C)=O)C(=O)N2CCC[C@H]2C(=O)N[C@@H](CCCCN)C(=O)N[C@@H](CCCNC(=N)N)C(=O)N2CCC[C@H]2C(=O)N[C@@H](Cc2ccc(O)cc2)C(=O)N[C@H](C(=O)N[C@@H](CC(C)C)C(=O)O)C(C)(C)C)C1=O (stereo partly drawn) [Compound 68] (I: Ac-[Pen]PKRPY[Tle]L-OH / II: GFLGG-{SN38(20-O)}; linker I:1-II:N via Hexanoyl(6-succinimido-3yl))	800 nM	
CC(=O)N[C@H](C(=O)N1CCC[C@H]1C(=O)N[C@@H](CC(C)C)C(=O)N1CCC[C@H]1C(=O)N[C@@H](CCCNC(=N)N)C(=O)N[C@H](C(=O)N[C@@H](CCCNC(=N)N)C(=O)N[C@@H](Cc1ccc(O)cc1)C(=O)O)C(C)(C)C)C(C)(C)SC1CC(=O)N(CCCCCC(=O)N[C@@H](Cc2ccccc2)C(=O)N[C@@H](CC(C)C)B2O[C@@H]3[C@@H]4C[C@H](C[C@]3(C)O2)C4(C)C)C1=O (some centres unmarked) [Compound 69]		> 10000 nM
CO[C@H]1C(=O)[C@]2(C)[C@@H](OC)C[C@H]3OC[C@@]3(OC(C)=O)[C@H]2[C@H](OC(=O)c2ccccc2)[C@]2(O)C[C@H](OC(=O)[C@H](OC(=O)CCCCCN3C(=O)CC(SC(C)(C)[C@H](NC(C)=O)C(=O)N4CCC[C@H]4C(=O)N[C@@H](CC(C)C)C(=O)N4CCC[C@H]4C(=O)N[C@@H](CCCNC(=N)N)C(=O)N[C@H](C(=O)N[C@@H](CCCNC(=N)N)C(=O)N[C@@H](Cc4ccc(O)cc4)C(=O)O)C(C)(C)C)C3=O)[C@@H](NC(=O)OC(C)(C)C)c3ccccc3)C(C)=C1C2(C)C (some centres unmarked) [Compound 72]		368 nM
CO[C@H]1C(=O)[C@]2(C)[C@@H](OC)C[C@H]3OC[C@@]3(OC(C)=O)[C@H]2[C@H](OC(=O)c2ccccc2)[C@]2(O)C[C@H](OC(=O)[C@H](OC(=O)N(C)CCN(C)C(=O)OCc3ccc(NC(=O)[C@H](CCCNC(N)=O)NC(=O)[C@@H](NC(=O)CCCCCN4C(=O)CC(SC(C)(C)[C@H](NC(C)=O)C(=O)N5CCC[C@H]5C(=O)N[C@@H](CC(C)C)C(=O)N5CCC[C@H]5C(=O)N[C@@H](CCCNC(=N)N)C(=O)N[C@H](C(=O)N[C@@H](CCCNC(=N)N)C(=O)N[C@@H](Cc5ccc(O)cc5)C(=O)O)C(C)(C)C)C4=O)C(C)C)cc3)[C@@H](NC(=O)OC(C)(C)C)c3ccccc3)C(C)=C1C2(C)C (some centres unmarked) [Compound 73]		2620 nM
CO[C@H]1C(=O)[C@]2(C)[C@@H](OC)C[C@H]3OC[C@@]3(OC(C)=O)[C@H]2[C@H](OC(=O)c2ccccc2)[C@]2(O)C[C@H](OC(=O)[C@H](OC(=O)N(C)CCCNC(=O)CNC(=O)[C@H](CC(C)C)NC(=O)[C@H](Cc3ccccc3)NC(=O)CNC(=O)CCCCCN3C(=O)CC(SCCC(=O)NCCCC[C@H](NC(C)=O)C(=O)N4CCC[C@H]4C(=O)N[C@@H](CC(C)C)C(=O)N4CCC[C@H]4C(=O)N(C)[C@@H](CCCNC(=N)N)C(=O)N[C@H](C(=O)N[C@@H](CCCNC(=N)N)C(=O)N[C@@H](Cc4ccc(O)cc4)C(=O)O)C(C)(C)C)C3=O)[C@@H](NC(=O)OC(C)(C)C)c3ccccc3)C(C)=C1C2(C)C (some centres unmarked) [Compound 74]		> 10000 nM
COc1cc2cc(c1Cl)N(C)C(=O)C[C@H](OC(=O)[C@H](C)N(C)C(=O)CCSC1CC(=O)N(CCCNC(=O)CNC(=O)[C@H](CC(C)C)NC(=O)[C@H](Cc3ccccc3)NC(=O)CNC(=O)CCCCCN3C(=O)CC(SCCC(=O)NCCCC[C@H](NC(C)=O)C(=O)N4CCC[C@H]4C(=O)N[C@@H](CC(C)C)C(=O)N4CCC[C@H]4C(=O)N(C)[C@@H](CCCNC(=N)N)C(=O)N[C@H](C(=O)N[C@@H](CCCNC(=N)N)C(=O)N[C@@H](Cc4ccc(O)cc4)C(=O)O)C(C)(C)C)C3=O)C1=O)[C@]1(C)O[C@H]1[C@H](C)[C@@H]1C[C@@](O)(NC(=O)O1)[C@H](OC)/C=C/C=C(\C)C2 (some centres unmarked) [Compound 82]		435 nM
COc1cc2cc(c1Cl)N(C)C(=O)C[C@H](OC(=O)[C@H](C)N(C)C(=O)CCSC1CC(=O)N(CCCNC(=O)CNC(=O)[C@H](CC(C)C)NC(=O)[C@H](Cc3ccccc3)NC(=O)CNC(=O)CCCCCN3C(=O)CC(SCCC(=O)NCCOCCOCCC(=O)NCCCC[C@H](NC(C)=O)C(=O)N4CCC[C@H]4C(=O)N[C@@H](CC(C)C)C(=O)N4CCC[C@H]4C(=O)N(C)[C@@H](CCCNC(=N)N)C(=O)N[C@H](C(=O)N[C@@H](CCCNC(=N)N)C(=O)N[C@@H](Cc4ccc(O)cc4)C(=O)O)C(C)(C)C)C3=O)C1=O)[C@]1(C)O[C@H]1[C@H](C)[C@@H]1C[C@@](O)(NC(=O)O1)[C@H](OC)/C=C/C=C(\C)C2 (some centres unmarked) [Compound 83]		1830 nM
COc1cc2cc(c1Cl)N(C)C(=O)C[C@H](OC(=O)[C@H](C)N(C)C(=O)CCSC1CC(=O)N(CCCNC(=O)CNC(=O)[C@H](CC(C)C)NC(=O)[C@H](Cc3ccccc3)NC(=O)CNC(=O)CCCCCN3C(=O)CC(SCCC(=O)NCCOCCOCCOCCOCCC(=O)NCCCC[C@H](NC(C)=O)C(=O)N4CCC[C@H]4C(=O)N[C@@H](CC(C)C)C(=O)N4CCC[C@H]4C(=O)N(C)[C@@H](CCCNC(=N)N)C(=O)N[C@H](C(=O)N[C@@H](CCCNC(=N)N)C(=O)N[C@@H](Cc4ccc(O)cc4)C(=O)O)C(C)(C)C)C3=O)C1=O)[C@]1(C)O[C@H]1[C@H](C)[C@@H]1C[C@@](O)(NC(=O)O1)[C@H](OC)/C=C/C=C(\C)C2 (some centres unmarked) [Compound 84]		48.5 nM
COc1cc2cc(c1Cl)N(C)C(=O)C[C@H](OC(=O)[C@H](C)N(C)C(=O)CCSC1CC(=O)N(CCCNC(=O)CNC(=O)[C@H](CC(C)C)NC(=O)[C@H](Cc3ccccc3)NC(=O)CNC(=O)CCCCCN3C(=O)CC(SCCC(=O)NCCOCCOCCOCCOCCOCCOCCOCCOCCC(=O)NCCCC[C@H](NC(C)=O)C(=O)N4CCC[C@H]4C(=O)N[C@@H](CC(C)C)C(=O)N4CCC[C@H]4C(=O)N(C)[C@@H](CCCNC(=N)N)C(=O)N[C@H](C(=O)N[C@@H](CCCNC(=N)N)C(=O)N[C@@H](Cc4ccc(O)cc4)C(=O)O)C(C)(C)C)C3=O)C1=O)[C@]1(C)O[C@H]1[C@H](C)[C@@H]1C[C@@](O)(NC(=O)O1)[C@H](OC)/C=C/C=C(\C)C2 (some centres unmarked) [Compound 85]		59.5 nM
COc1cccc2c1C(=O)c1c(O)c3c(c(O)c1C2=O)C[C@@](O)(C(=O)CO)C[C@@H]3O[C@H]1C[C@H](NC(=O)OCCSSC(C)(C)[C@H](NC(C)=O)C(=O)N2CCC[C@H]2C(=O)N[C@@H](CC(C)C)C(=O)N2CCC[C@H]2C(=O)N[C@@H](CCCNC(=N)N)C(=O)N[C@H](C(=O)N[C@@H](CCCNC(=N)N)C(=O)N[C@@H](Cc2ccc(O)cc2)C(=O)O)C(C)(C)C)[C@H](O)[C@H](C)O1 [Compound 88]		1940 nM
COc1cccc2c1C(=O)c1c(O)c3c(c(O)c1C2=O)C[C@@](O)(C(=O)CO)C[C@@H]3O[C@H]1C[C@H](NC(=O)OCc2ccc(NC(=O)[C@H](CCCNC(N)=O)NC(=O)[C@@H](NC(=O)CCCCCN3C(=O)CC(SC(C)(C)[C@H](NC(C)=O)C(=O)N4CCC[C@H]4C(=O)N[C@@H](CC(C)C)C(=O)N4CCC[C@H]4C(=O)N[C@@H](CCCNC(=N)N)C(=O)N[C@H](C(=O)N[C@@H](CCCNC(=N)N)C(=O)N[C@@H](Cc4ccc(O)cc4)C(=O)O)C(C)(C)C)C3=O)C(C)C)cc2)[C@H](O)[C@H](C)O1 (some centres unmarked) [Compound 89]		2580 nM
CC[C@H](C)[C@@H]([C@@H](CC(=O)N1CCC[C@H]1[C@H](OC)[C@@H](C)C(=O)N[C@H](C)[C@@H](O)c1ccccc1)OC)N(C)C(=O)[C@@H](NC(=O)[C@H](C(C)C)N(C)C(=O)OCc1ccc(NC(=O)[C@H](CCCNC(N)=O)NC(=O)[C@@H](NC(=O)CCCCCN2C(=O)CC(SCCC(=O)NCCOCCOCCC(=O)NCCCC[C@H](NC(C)=O)C(=O)N3CCC[C@H]3C(=O)N[C@@H](CC(C)C)C(=O)N3CCC[C@H]3C(=O)N(C)[C@@H](CCCNC(=N)N)C(=O)N[C@H](C(=O)N[C@@H](CCCNC(=N)N)C(=O)N[C@@H](Cc3ccc(O)cc3)C(=O)O)C(C)(C)C)C2=O)C(C)C)cc1)C(C)C (some centres unmarked) [Compound 94]		52.5 nM
